Data from US20030153475A1, “Composition for treating contact lenses” (priority 2001, published 2003).

Biological target: T1, hen egg lysozyme (Gallus gallus, UniProt P00698)
T1 construct: from tissue; host or cells: hen egg
Assay: lysozyme denaturation/stabilization test: lysozyme activity on M. luteus suspension, optical density at 450nm
Format: biochemical
Settings: Table 1, saline + 20 mM buffering agent
Protocol: Each solution included saline and 20 mM of buffering agent as specified in Table 1 below. To each test solution was added 1 mg/ml of hen egg lysozyme as well as a phosphate buffered saline (PBS) control. The test solutions were mixed slowly with a stir bar until the lysozyme was incorporated into the solutions. Five ml of each lysozyme-containing test solution was retained as the unheated control. The remaining 5 ml of each lysozyme-containing test solution were placed in glass less vials, capped with silicone stoppers and incubated in a shaking water bath at 80° C. 40 revolutions per minute (rpm) for 1 hour—these heating conditions are sufficient to denature the lysozyme, absent a stabilization effect provided by the buffering agents. The vials were allowed to come to ambient temperature before testing. A 0.00025 g/ml suspension of M. luteus was prepared from lyophilized cells in PBS. The suspension was continually mixed on a stir plate during the testing period to prevent the suspension from settling. For each set of test solutions, the following were tested (sample): a heated lysozyme-containing test solution (“lysozyme+heat”); an unheated lysozyme-containing test solution (“lysozyme/no heat”; and a test solution without lysozyme (“no lysozyme”). One ml of each sample was placed into a glass test tube to which 9 ml of M. luteus suspension was added and vortexed. A 1-ml sub sample was placed into a disposable cuvette and evaluated on a UV-vis spectrophotometer at 450nm. […] Each of the solutions were evaluated in triplicate. Each of the three optical density measurements from the triplicate samples were averaged.

[1] = lysozyme + heat (80° C., 1 hour)
[2] = lysozyme/no heat, 1 mg/ml lysozyme

T1 sequence (P00698 19-147): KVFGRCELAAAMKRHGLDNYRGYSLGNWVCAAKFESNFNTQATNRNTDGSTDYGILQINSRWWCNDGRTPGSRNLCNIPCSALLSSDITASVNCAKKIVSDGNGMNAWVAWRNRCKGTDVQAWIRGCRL

Compound | Time 0 Min (optical density, 450nm) [1] | Percent Change 5 Min [1] | Time 5 Min (optical density, 450nm) [1] | Percent Change 10 Min [1] | Time 10 Min (optical density, 450nm) [1] | Time 0 Min (optical density, 450nm) [2] | Percent Change 5 Min (lysozyme/no heat) | Time 5 Min (optical density, 450nm) (lysozyme/no heat) | Percent Change 10 Min (lysozyme/no heat) | Time 10 Min (optical density, 450nm) (lysozyme/no heat) | Time 0 Min (optical density, 450nm) (no lysozyme) | Percent Change 5 Min (no lysozyme) | Time 5 Min (optical density, 450nm) (no lysozyme) | Percent Change 10 Min (no lysozyme) | Time 10 Min (optical density, 450nm) (no lysozyme)
O=C(O)CC(O)(CC(=O)O)C(=O)O [Citrate] | 0.877 | 2.96% | 0.851 | 10.49% | 0.785 | 0.654 | 92.51% | 0.049 | 95.41% | 0.030 | 0.857 | 0.82% | 0.850 | 0.82% | 0.850
NC(CO)(CO)CO [Tris, 2-amino-2-hydroxymethyl-1,3-propanediol] | 0.810 | 80.99% | 0.154 | 85.56% | 0.117 | 0.654 | 92.66% | 0.048 | 95.72% | 0.028 | 0.859 | 0.58% | 0.854 | 0.58% | 0.854
Borate | 0.872 | 21.90% | 0.681 | 55.28% | 0.390 | 0.619 | 91.44% | 0.053 | 94.51% | 0.034 | 0.853 | 0.00% | 0.853 | −0.12% | 0.854
Phosphate | 0.861 | 0.34% | 0.858 | 1.05% | 0.852 | 0.634 | 91.80% | 0.052 | 95.43% | 0.029 | 0.856 | 0.47% | 0.852 | 0.23% | 0.854
